# Reference: ChEMBL document CHEMBL3885861, “Open TG-GATES”
# Organism: Rattus norvegicus
# Assay: Open TG-GATES - Regimen: Single
# Format: toxicity, organism-based, Sprague-Dawley
# Parameters: regimen Single, gender Male, age 6 weeks
# Conditions: in vivo, po, 60 mg/kg, route gavage, dose level High; for APTT / Bas / Eos / Fbg / Hb / Ht / Lym / MCH / MCHC / MCV / Mono / Neu / PT / Plat / RBC / Ret / WBC: tissue Blood; for KIDNEY_L / KIDNEY_R / KIDNEY_TOTAL: tissue Kidney; for LIVER: tissue Liver; for A/G / ALP / ALT / AST / BUN / CRE / Ca / Cl / DBIL / GLC / IP / K / LDH / Na / PL / RALB / TBIL / TC / TG / TP / gamma-GTP: tissue Plasma
smiles,measurement,setting,value
CC(C)NNC(=O)c1ccncc1 [IPRONIAZID],TERMINAL_BW,3 h,204.9 g
same,APTT,3 h,22.1 s
same,Bas,3 h,0%
same,Eos,3 h,1%
same,Fbg,3 h,294 mg/dL
same,Hb,3 h,12.7 g/dL
same,Ht,3 h,37%
same,Lym,3 h,74.8%
same,MCH,3 h,20.9 pg
same,MCHC,3 h,34.2%
same,MCV,3 h,61 fL
same,Mono,3 h,2%
same,Neu,3 h,21.8%
same,PT,3 h,16.2 s
same,Plat,3 h,124.5 x10_4/uL
same,RBC,3 h,608.8 x10_4/ul
same,Ret,3 h,7.9%
same,WBC,3 h,90.6 x10_2/uL
same,KIDNEY_L,3 h,1 g
same,KIDNEY_R,3 h,1 g
same,KIDNEY_TOTAL,3 h,1.9 g
same,LIVER,3 h,8.8 g
same,A/G,3 h,1.3
same,ALP,3 h,1312.5 IU/L
same,ALT,3 h,35 IU/L
same,AST,3 h,72.2 IU/L
same,BUN,3 h,12 mg/dL
same,CRE,3 h,0.2 mg/dL
same,Ca,3 h,10.5 mg/dL
same,Cl,3 h,105.8 meq/L
same,DBIL,3 h,0 mg/dL
same,GLC,3 h,180.5 mg/dL
same,IP,3 h,9.8 mg/dL
same,K,3 h,4 meq/L
same,LDH,3 h,221.5 IU/L
same,Na,3 h,141.2 meq/L
same,PL,3 h,136 mg/dL
same,RALB,3 h,2.9 g/dL
same,TBIL,3 h,0 mg/dL
same,TC,3 h,78 mg/dL
same,TG,3 h,34.8 mg/dL
same,TP,3 h,5.2 g/dL
same,gamma-GTP,3 h,1 IU/L
same,TERMINAL_BW,6 h,212.4 g
same,APTT,6 h,21.7 s
same,Bas,6 h,0%
same,Eos,6 h,0.8%
same,Fbg,6 h,325.8 mg/dL
same,Hb,6 h,13 g/dL
same,Ht,6 h,38%
same,Lym,6 h,72.2%
same,MCH,6 h,21 pg
same,MCHC,6 h,34.3%
same,MCV,6 h,61.4 fL
same,Mono,6 h,2%
same,Neu,6 h,23.8%
same,PT,6 h,15.6 s
same,Plat,6 h,125.7 x10_4/uL
same,RBC,6 h,619.8 x10_4/ul
same,Ret,6 h,8%
same,WBC,6 h,79.9 x10_2/uL
same,KIDNEY_L,6 h,0.9 g
same,KIDNEY_R,6 h,0.9 g
same,KIDNEY_TOTAL,6 h,1.8 g
same,LIVER,6 h,9.2 g
same,A/G,6 h,1.3
same,ALP,6 h,1181.8 IU/L
same,ALT,6 h,35 IU/L
same,AST,6 h,75.4 IU/L
same,BUN,6 h,8.8 mg/dL
same,CRE,6 h,0.1 mg/dL
same,Ca,6 h,10.8 mg/dL
same,Cl,6 h,106.8 meq/L
same,DBIL,6 h,0.002 mg/dL
same,GLC,6 h,180 mg/dL
same,IP,6 h,9.9 mg/dL
same,K,6 h,4.1 meq/L
same,LDH,6 h,237.8 IU/L
same,Na,6 h,142 meq/L
same,PL,6 h,159.2 mg/dL
same,RALB,6 h,3 g/dL
same,TBIL,6 h,0.002 mg/dL
same,TC,6 h,93.6 mg/dL
same,TG,6 h,44.6 mg/dL
same,TP,6 h,5.5 g/dL
same,gamma-GTP,6 h,1.4 IU/L
same,TERMINAL_BW,9 h,196.4 g
same,APTT,9 h,22.5 s
same,Bas,9 h,0%
same,Eos,9 h,1%
same,Fbg,9 h,320.6 mg/dL
same,Hb,9 h,13 g/dL
same,Ht,9 h,37.9%
same,Lym,9 h,76%
same,MCH,9 h,20 pg
same,MCHC,9 h,34.3%
same,MCV,9 h,58.3 fL
same,Mono,9 h,1.4%
same,Neu,9 h,21%
same,PT,9 h,15.9 s
same,Plat,9 h,121.4 x10_4/uL
same,RBC,9 h,650.4 x10_4/ul
same,Ret,9 h,6.3%
same,WBC,9 h,55.2 x10_2/uL
same,KIDNEY_L,9 h,0.9 g
same,KIDNEY_R,9 h,0.9 g
same,KIDNEY_TOTAL,9 h,1.8 g
same,LIVER,9 h,8 g
same,A/G,9 h,1.2
same,ALP,9 h,1174.6 IU/L
same,ALT,9 h,27.2 IU/L
same,AST,9 h,65 IU/L
same,BUN,9 h,7.6 mg/dL
same,CRE,9 h,0.2 mg/dL
same,Ca,9 h,10.4 mg/dL
same,Cl,9 h,107 meq/L
same,DBIL,9 h,0.006 mg/dL
same,GLC,9 h,184.6 mg/dL
same,IP,9 h,9.4 mg/dL
same,K,9 h,4 meq/L
same,LDH,9 h,176.2 IU/L
same,Na,9 h,142.2 meq/L
same,PL,9 h,139.6 mg/dL
same,RALB,9 h,3.1 g/dL
same,TBIL,9 h,0.004 mg/dL
same,TC,9 h,84.4 mg/dL
same,TG,9 h,30.4 mg/dL
same,TP,9 h,5.6 g/dL
same,gamma-GTP,9 h,1 IU/L
same,TERMINAL_BW,24 h,208.5 g
same,APTT,24 h,21.7 s
same,Bas,24 h,0%
same,Eos,24 h,1%
same,Fbg,24 h,336.8 mg/dL
same,Hb,24 h,13.6 g/dL
same,Ht,24 h,39.4%
same,Lym,24 h,80.6%
same,MCH,24 h,21.3 pg
same,MCHC,24 h,34.5%
same,MCV,24 h,61.8 fL
same,Mono,24 h,2.4%
same,Neu,24 h,14.8%
same,PT,24 h,15.4 s
same,Plat,24 h,119.6 x10_4/uL
same,RBC,24 h,637.4 x10_4/ul
same,Ret,24 h,7.5%
same,WBC,24 h,66.9 x10_2/uL
same,KIDNEY_L,24 h,0.9 g
same,KIDNEY_R,24 h,1 g
same,KIDNEY_TOTAL,24 h,1.9 g
same,LIVER,24 h,9.2 g
same,A/G,24 h,1.3
same,ALP,24 h,1223.4 IU/L
same,ALT,24 h,37 IU/L
same,AST,24 h,74.4 IU/L
same,BUN,24 h,14 mg/dL
same,CRE,24 h,0.2 mg/dL
same,Ca,24 h,10.6 mg/dL
same,Cl,24 h,107 meq/L
same,DBIL,24 h,0.002 mg/dL
same,GLC,24 h,187.6 mg/dL
same,IP,24 h,7.8 mg/dL
same,K,24 h,4.1 meq/L
same,LDH,24 h,240.4 IU/L
same,Na,24 h,142.6 meq/L
same,PL,24 h,148.6 mg/dL
same,RALB,24 h,3.1 g/dL
same,TBIL,24 h,0.02 mg/dL
same,TC,24 h,91 mg/dL
same,TG,24 h,60.6 mg/dL
same,TP,24 h,5.6 g/dL
same,gamma-GTP,24 h,1.6 IU/L
